Like-named read-outs stand apart in the source and are kept apart here.
What was measured:
Smn protein = Smn protein assay in cultured cells (SMN HTRF); type: cell-based, human; conditions: for EC1.5x (concentration giving 1.5-fold Smn protein increase): read-out: EC1.5x for Smn protein expression
Outline: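 Lysates in RIPA with protease inhibitors are incubated overnight at room temperature with HTRF anti-SMN antibodies. EC1.5x is derived from fold increase in ΔF over vehicle.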

[1] = system: SMN2 minigene (full length SMN2 minigene mRNA containing SMN2 exon 7); experiment: SMN2 minigene mRNA splicing RT-qPCR assay in cultured cells; type: cell-based, human; conditions: Homo sapiens, HEK293-H, read-out: EC1.5x for production of full length SMN2 mRNA
Outline: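 HEK293H cells stably carrying the SMN2-A minigene treated 24 h at 37° C with compound (DMSO, 200× stock), then lysed. Multiplex RT-qPCR (SMN primers 0.4 μM final; 40 cycles) measures full-length exon 7-containing minigene mRNA, normalized to GAPDH and to vehicle; EC1.5x derived and binned by stars.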

[2] = SMA patient fibroblast cells, 48 hours, 7-point concentration data, fold increase relative to vehicle control (SMN HTRF)
[3] = HEK293H cells stably transfected with SMN2-A minigene, 24 hours, 7-point concentration curve, 1.5-fold relative to vehicle-treated cells
[4] = SMA Type 1 patient fibroblast cells (GM03813), 48 hours, 7-point concentration curve, SMN HTRF, concentration producing 1.5 times Smn protein vs DMSO vehicle control

Cc1cn2cc(-c3cc4ccc(O[C@@H]5CCNC5)cc4oc3=O)nc2s1.Cl.Cl [Compound 325, 3-(2-methylimidazo[2,1-b][1,3]thiazol-6-yl)-7-[(3R)-pyrrolidin-3-yloxy]-2H-chromen-2-one hydrochloride (1:2)]
maximum fold (Fold) increase of Smn protein (Smn protein; [2]): * (maximum fold increase of ≤1.2) | melting point: 230 to 235 °C | EC (1.5-fold) [1, 3]: 0.3 to 1 µM

CSc1nccn2cc(-c3cc4ccc(N5C[C@@H](C)N[C@@H](C)C5)cc4oc3=O)nc12 [Compound 400, 7-[(3R,5S)-3,5-dimethylpiperazin-1-yl]-3-[8-(methylsulfanyl)imidazo[1,2-a]pyrazin-2-yl]-2H-chromen-2-one]
maximum fold (Fold) increase of Smn protein (Smn protein; [2]): * (maximum fold increase of ≤1.2) | melting point: 283 to 285 °C | EC (1.5-fold) [1, 3]: 3 to 30 µM

CCN1CCC(F)(c2ccc3cc(-c4cn5cc(C)nc(C)c5n4)c(=O)oc3c2)CC1 [Cpd 958, 3-(6,8-dimethylimidazo[1,2-a]pyrazin-2-yl)-7-(1-ethyl-4-fluoropiperidin-4-yl)-2H-chromen-2-one]
maximum fold (Fold) increase of Smn protein (Smn protein): ***** (key: *: maximum fold increase of ≤1.2; **: fold increase between >1.2 and ≤1.35; ***: fold increase between >1.35 and ≤1.5; ****: fold increase between >1.5 and ≤1.65; *****: fold increase >1.65) | EC1.5x (concentration giving 1.5-fold Smn protein increase) (Smn protein): < 300 nM | melting point: 162 to 164 °C | EC (1.5-fold) ([1]; 24 h): < 0.1 µM

CNCCc1ccc2cc(-c3cn4cc(C)nc(C)c4n3)c(=O)oc2c1 [Compound 911, 3-(6,8-dimethylimidazo[1,2-a]pyrazin-2-yl)-7-[2-(methylamino)ethyl]-2H-chromen-2-one]
EC1.5x (concentration giving 1.5-fold Smn protein increase) (Smn protein; [4]): < 300 nM | maximum fold (Fold) increase of Smn protein (Smn protein; [2]): ***** (fold increase >1.65) | melting point: 204 to 208 °C | EC (1.5-fold) [1, 3]: < 0.1 µM

Cc1ccc(-c2cc3ccc(N4CCNCC4)cc3oc2=O)cn1 [Compound 163, 3-(6-methylpyridin-3-yl)-7-(piperazin-1-yl)-2H-chromen-2-one]
maximum fold (Fold) increase of Smn protein (Smn protein; [2]): * (maximum fold increase of ≤1.2) | melting point: 148 to 150 °C | EC (1.5-fold) ([1]; 24 h): 3 to 30 µM

CC(=O)O.CC[C@H]1CN(c2ccc3cc(-c4cn5cc(C)nc(C)c5n4)c(=O)oc3c2)CCN1C [Compound 778, 3-(6,8-dimethylimidazo [1,2-a]pyrazin-2-yl)-7-[(3S)-3-ethyl-4-methylpiperazin-1-yl]-2H-chromen-2-one acetate]
EC1.5x (concentration giving 1.5-fold Smn protein increase) (Smn protein; [4]): < 300 nM | maximum fold (Fold) increase of Smn protein (Smn protein; [2]): ***** (fold increase >1.65) | melting point: 170 to 172 °C | EC (1.5-fold) [1, 3]: < 0.1 µM

CCN1CC[C@@H](Oc2ccc3cc(-c4cn5cc(C)nc(C)c5n4)c(=O)oc3c2)C1 [Compound 890, 3-(6,8-dimethylimidazo[1,2-a]pyrazin-2-yl)-7-{[(3R)-1-ethylpyrrolidin-3-yl]oxy}-2H-chromen-2-one]
EC1.5x (concentration giving 1.5-fold Smn protein increase) (Smn protein; [4]): < 300 nM | maximum fold (Fold) increase of Smn protein (Smn protein; [2]): ***** (fold increase >1.65) | melting point: 193 to 195 °C | EC (1.5-fold) [1, 3]: < 0.1 µM

Cc1cn2cc(-c3cc4ccc(C5CCN(C)CC5)cc4oc3=O)cnc2n1 [Compound 835, 3-(2-methylimidazo[1,2-a]pyrimidin-6-yl)-7-(1-methylpiperidin-4-yl)-2H-chromen-2-one]
EC1.5x (concentration giving 1.5-fold Smn protein increase) (Smn protein; [4]): 300 to 1000 nM | maximum fold (Fold) increase of Smn protein (Smn protein; [2]): ***** (fold increase >1.65) | melting point: 300 to 302 °C | EC (1.5-fold) [1, 3]: 0.3 to 1 µM

Cc1csc(-c2cc3ccc(N4CCN[C@@H](C)C4)cc3oc2=O)n1 [Cpd 283, 7-[(3S)-3-methylpiperazin-1-yl]-3-(4-methyl-1,3-thiazol-2-yl)-2H-chromen-2-one]
maximum fold (Fold) increase of Smn protein (Smn protein; [2]): * (maximum fold increase of ≤1.2) | melting point: 194 to 199 °C | EC (1.5-fold) ([1]; 24 h): 0.3 to 1 µM

COc1ccc(-c2cc3ccc(N4CCN[C@H](C)C4)cc3oc2=O)cc1 [Compound 448, 3-(4-methoxyphenyl)-7-[(3R)-3-methylpiperazin-1-yl]-2H-chromen-2-one]
maximum fold (Fold) increase of Smn protein (Smn protein; [2]): * (maximum fold increase of ≤1.2) | melting point: 123 to 126 °C | EC (1.5-fold) [1, 3]: 1 to 3 µM

C[C@@H]1CN(c2ccc3cc(-c4cn5cc(F)cc(F)c5n4)c(=O)oc3c2)C[C@H](C)N1 [Compound 523, 3-(6,8-difluoroimidazo[1,2-a]pyridin-2-yl)-7-[(3R,5S)-3,5-dimethylpiperazin-1-yl]-2H-chromen-2-one]
maximum fold (Fold) increase of Smn protein (Smn protein; [2]): ** (fold increase between >1.2 and ≤1.35) | melting point: 267 to 277 °C | EC (1.5-fold) [1, 3]: 0.3 to 1 µM

CN1CCN(c2ccc3cc(-c4cn(C)c5ccccc45)c(=O)oc3c2)CC1 [Compound 259, 3-(1-methyl-1H-indol-3-yl)-7-(4-methylpiperazin-1-yl)-2H-chromen-2-one]
maximum fold (Fold) increase of Smn protein (Smn protein; [2]): * (maximum fold increase of ≤1.2) | melting point: 185 to 187 °C | EC (1.5-fold) [1, 3]: 1 to 3 µM

Cc1cn2cc(-c3cc4ccc(N5C[C@@H](C)N(C)[C@@H](C)C5)cc4oc3=O)nc2c(C)n1 [Compound 605, 3-(6,8-dimethylimidazo[1,2-a]pyrazin-2-yl)-7-[(3R,5S)-3,4,5-trimethylpiperazin-1-yl]-2H-chromen-2-one]
EC1.5x (concentration giving 1.5-fold Smn protein increase) (Smn protein; [4]): < 300 nM | maximum fold (Fold) increase of Smn protein (Smn protein; [2]): ***** (fold increase >1.65) | melting point: 229 to 232 °C | EC (1.5-fold) [1, 3]: < 0.1 µM

Cl.O=c1oc2cc(N3CCNCC3)ccc2cc1-c1nc2cc(F)ccc2o1 [Compound 19, 3-(5-fluoro-1,3-benzoxazol-2-yl)-7-(piperazin-1-yl)-2H-chromen-2-one hydrochloride]
maximum fold (Fold) increase of Smn protein (Smn protein; [2]): * (maximum fold increase of ≤1.2) | melting point: 320 to 325 °C | EC (1.5-fold) [1, 3]: 1 to 3 µM

CN(C)Cc1ccc2cc(-c3nc4ccccc4[nH]3)c(=O)oc2c1 [Compound 396, 3-(1H-benzimidazol-2-yl)-7-[(dimethylamino)methyl]-2H-chromen-2-one]
maximum fold (Fold) increase of Smn protein (Smn protein; [2]): ** (fold increase between >1.2 and ≤1.35) | melting point: 214 to 218 °C | EC (1.5-fold) [1, 3]: 1 to 3 µM

CCN1CCC(Oc2ccc3cc(-c4cn5cc(C)nc(C)c5n4)c(=O)oc3c2)CC1 [Compound 898, 3-(6,8-dimethylimidazo[1,2-a]pyrazin-2-yl)-7-[(1-ethylpiperidin-4-yl)oxy]-2H-chromen-2-one]
EC1.5x (concentration giving 1.5-fold Smn protein increase) (Smn protein; [4]): < 300 nM | maximum fold (Fold) increase of Smn protein (Smn protein; [2]): ***** (fold increase >1.65) | melting point: 175 to 177 °C | EC (1.5-fold) [1, 3]: < 0.1 µM

Cc1cn2cc(-c3cc4ccc(C5CCNCC5)cc4oc3=O)nc2c(C)n1 [Cpd 742, 3-(6,8-dimethylimidazo[1,2-a]pyrazin-2-yl)-7-(piperidin-4-yl)-2H-chromen-2-one]
EC1.5x (concentration giving 1.5-fold Smn protein increase) (Smn protein; [4]): < 300 nM | maximum fold (Fold) increase of Smn protein (Smn protein; [2]): ***** (fold increase >1.65) | melting point: 224 to 229 °C | EC (1.5-fold) [1, 3]: < 0.1 µM

O=c1oc2cc(N3CCN(CCO)CC3)ccc2cc1-c1cc2ccccn2n1 [Compound 190, 7-[4-(2-hydroxyethyl)piperazin-1-yl]-3-(pyrazolo[1,5-a]pyridin-2-yl)-2H-chromen-2-one]
maximum fold (Fold) increase of Smn protein (Smn protein; [2]): ** (fold increase between >1.2 and ≤1.35) | melting point: 201 to 205 °C | EC (1.5-fold) [1, 3]: 1 to 3 µM

Cc1nc(Cl)cn2cc(-c3cc4ccc(N5CCN6CCC[C@H]6C5)cc4oc3=O)nc12 [Compound 711, 3-(6-chloro-8-methylimidazo[1,2-a]pyrazin-2-yl)-7-[(8aS)-hexahydropyrrolo[1,2-a]pyrazin-2(1H)-yl]-2H-chromen-2-one]
EC1.5x (concentration giving 1.5-fold Smn protein increase) (Smn protein; [4]): 1000 to 3000 nM | maximum fold (Fold) increase of Smn protein (Smn protein; [2]): *** (fold increase between >1.35 and ≤1.5) | melting point: 260 to 262 °C | EC (1.5-fold) [1, 3]: < 0.1 µM

Cc1cn2cc(-c3cc4ccc(N5CC[C@H]6CNC[C@H]65)cc4oc3=O)nc2c(C)n1 [Compound 687, 3-(6,8-dimethylimidazo[1,2-a]pyrazin-2-yl)-7-[(3aS,6aS)-hexahydropyrrolo[3,4-b]pyrrol-1(2H)-yl]-2H-chromen-2-one]
EC1.5x (concentration giving 1.5-fold Smn protein increase) (Smn protein; [4]): 1000 to 3000 nM | maximum fold (Fold) increase of Smn protein (Smn protein; [2]): *** (fold increase between >1.35 and ≤1.5) | melting point: 243 to 253 °C | EC (1.5-fold) [1, 3]: < 0.1 µM

CC1(C)CN(c2ccc3cc(-c4cn5cccc(F)c5n4)c(=O)oc3c2)CCN1 [Compound 507, 7-(3,3-dimethylpiperazin-1-yl)-3-(8-fluoroimidazo[1,2-a]pyridin-2-yl)-2H-chromen-2-one]
EC1.5x (concentration giving 1.5-fold Smn protein increase) (Smn protein; [4]): < 300 nM | maximum fold (Fold) increase of Smn protein (Smn protein; [2]): **** (fold increase between >1.5 and ≤1.65) | melting point: 180 to 182 °C | EC (1.5-fold) [1, 3]: 0.1 to 0.3 µM

COc1cc(-c2cc3ccc(N4CCNCC4)cc3oc2=O)ccc1C [Compound 574, 3-(3-methoxy-4-methylphenyl)-7-(piperazin-1-yl)-2H-chromen-2-one]
maximum fold (Fold) increase of Smn protein (Smn protein; [2]): * (maximum fold increase of ≤1.2) | melting point: 170 to 174 °C | EC (1.5-fold) [1, 3]: 1 to 3 µM

CCCN1CCN(c2ccc3cc(-c4cn5cc(C)ccc5n4)c(=O)oc3c2)CC1 [Compound 207, 3-(6-methylimidazo[1,2-a]pyridin-2-yl)-7-(4-propylpiperazin-1-yl)-2H-chromen-2-one]
maximum fold (Fold) increase of Smn protein (Smn protein; [2]): ** (fold increase between >1.2 and ≤1.35) | melting point: 220 to 222 °C | EC (1.5-fold) [1, 3]: 1 to 3 µM

From patent USRE47689E1, “Compounds for treating spinal muscular atrophy” (PTC Therapeutics, Inc., priority 2011, dated 2019)
